Measured values: US12371454B2, “Cyclic peptide compound having Kras inhibitory action” (priority 2019, dated 2025)
Starred links: 1 amine or outer side, 2 acyl side, 3 side chain; linkers in the order of their positions; H or OH if unused. Positions of bridges follow the written chain, without caps; N, C: chain ends. Non-standard residues stand in square brackets, D forms with d. Residues, ends and D or L forms follow the SMILES beside them. *: point of attachment. hPhe(3,5-F2-4-CF3) = N[C@@H](CCc1cc(F)c(C(F)(F)F)c(F)c1)C(=O)O; hPhe(3-Cl-4-CF3) = N[C@@H](CCc1ccc(C(F)(F)F)c(Cl)c1)C(=O)O; hPhe(3-F,4-CF3) = N[C@@H](CCc1ccc(C(F)(F)F)c(F)c1)C(=O)O; NMePhe(4-CF3) = CN[C@@H](Cc1ccc(C(F)(F)F)cc1)C(=O)O; hPhe(4-CF3) = N[C@@H](CCc1ccc(C(F)(F)F)cc1)C(=O)O; NMeAbu(4,4,4-F3) = CN[C@@H](CC(F)(F)F)C(=O)O; NMePhe(4-Cl) = CN[C@@H](Cc1ccc(Cl)cc1)C(=O)O; NMePhe(2-OMe) = CN[C@@H](Cc1ccccc1OC)C(=O)O; NMePhe(4-Me) = CN[C@@H](Cc1ccc(C)cc1)C(=O)O; NMedβ3hAla = C[C@H](CC(=O)[*:2])N(C)[*:1]; Phe(3-CN) = N#Cc1cccc(C[C@H](N)C(=O)O)c1; NMeGly(cPent) = CN[C@H](C(=O)O)C1CCCC1; Phe(3-I) = N[C@@H](Cc1cccc(I)c1)C(=O)O; Pro(4,4-F2) = O=C(O)[C@@H]1CC(F)(F)CN1; NMeAla(cPr) = CN[C@@H](CC1CC1)C(=O)O; NMeCha = CN[C@@H](CC1CCCCC1)C(=O)O; NMeChg = CN[C@H](C(=O)O)C1CCCCC1; NMeF = CN[C@@H](Cc1ccccc1)C(=O)O; hPhe = N[C@@H](CCc1ccccc1)C(=O)O; N(CH2CH2)2CF2 = FC1(F)CCN(*)CC1; NMeD = CN[C@@H](CC(=O)O)C(=O)O; NMeL = CN[C@@H](CC(C)C)C(=O)O; NMeV = CN[C@H](C(=O)O)C(C)C; d(β3hA) = C[C@@H](N)CC(=O)O; dIva = CC[C@@](C)(N)C(=O)O; dPip = O=C(O)[C@H]1CCCCN1; NMeA = CN[C@@H](C)C(=O)O; NMeAib = CNC(C)(C)C(=O)O; Nle = CCCC[C@H](N)C(=O)O; Piperidide = C1CCN(*)CC1; Pyrrolidide = C1CCN(*)C1; Ac5c = NC1(C(=O)O)CCCC1; Aze = O=C(O)[C@@H]1CCN1; Ac4c = NC1(C(=O)O)CCC1; Ac3c = NC1(C(=O)O)CC1; Sar = CNCC(=O)O

Molecular target: T1, Kras and SOS1 (biotin-tagged human Kras loaded with GDP, His-tagged human SOS1) (Homo sapiens, UniProt P01116, G12D)
T1 construct: made in house; host or cells: E. coli (stated for Kras only)
T1 sequence (P01116 1-188 isoform P01116-2 G12D): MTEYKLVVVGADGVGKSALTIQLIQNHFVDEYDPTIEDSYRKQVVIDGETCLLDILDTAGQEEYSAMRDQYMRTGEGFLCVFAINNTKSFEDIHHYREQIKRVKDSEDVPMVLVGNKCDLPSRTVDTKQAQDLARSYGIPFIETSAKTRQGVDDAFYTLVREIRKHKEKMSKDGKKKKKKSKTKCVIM
Assay: Protein-protein interaction inhibition between Kras and SOS1 (KrasGl2D-SOS PPI) using AlphaScreen
Type: binding
Settings: AlphaScreen; biotin-tagged human Kras loaded with GDP, His-tagged human SOS1; read-out: KRAS G12D-SOS PPI IC50
Method in brief: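 Donor beads (nickel) hold His-SOS1; acceptor beads (streptavidin) hold biotin-Kras bound to GDP. Signal measured at 520-620 nm following 680 nm excitation.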

Row | Compound | IC50
1 | CC[C@H](C)[C@@H]1NC(=O)[C@H](CC(F)(F)F)N(C)C(=O)C[C@@H](C(=O)N2CCCC2)N(C)C(=O)[C@H](C2CCCCC2)N(C)C(=O)C2(CCCC2)NC(=O)[C@@H]2CCCN2C(=O)[C@H](CCc2ccc(C(F)(F)F)c(Cl)c2)NC(=O)CN(C)C(=O)[C@H](Cc2ccc(C(F)(F)F)cc2)N(C)C(=O)CN(C)C(=O)CN(C)C1=O [Compound 245, (3S,9S,18S,21S,25S,28S,34S)-3-[2-[3-chloro-4-(trifluoromethyl)phenyl]ethyl]-28-cyclohexyl-7,10,13,16,22,26,29-heptamethyl-18-[(1S)-1-methylpropyl]-25-(pyrrolidine-1-carbonyl)-21-(2,2,2-trifluoroethyl)-9-[[4-(trifluoromethyl)phenyl]methyl]spiro[1,4,7,10,13,16,19,22,26,29,32-undecazabicyclo[32.3.0]heptatriacontane-31,1′-cyclopentane]-2,5,8,11,14,17,20,23,27,30,33-undecone] ([NMeAbu(4,4,4-F3)]I[Sar][Sar][NMePhe(4-CF3)][Sar][hPhe(3-Cl-4-CF3)]P[Ac5c][NMeChg][NMeD]-Pyrrolidide; lactam N-11) | 0.37 nM
2 | CC[C@H](C)[C@@H]1NC(=O)[C@H](CC(C)C)N(C)C(=O)C[C@@H](C(=O)N2CCCCC2)N(C)C(=O)[C@H](CC(C)C)NC(=O)C(C)(C)N(C)C(=O)[C@H](Cc2ccc(OC)cc2)NC(=O)[C@H](Cc2cccc(I)c2)NC(=O)CN(C)C(=O)[C@H](Cc2ccc(C)cc2)N(C)C(=O)CN(C)C(=O)CN(C)C1=O [Compound 247] ([NMeL]I[Sar][Sar][NMePhe(4-Me)][Sar][Phe(3-I)]Y(Me)[NMeAib]L[NMeD]-Piperidide; lactam N-11) | 7 nM
3 | CC[C@H](C)[C@@H]1NC(=O)[C@H](CC2CC2)N(C)C(=O)C[C@@H](C)NC(=O)[C@H](C(C)C)N(C)C(=O)C2(CCCC2)NC(=O)[C@@H]2CCCN2C(=O)[C@H](CCc2ccc(C(F)(F)F)c(Cl)c2)NC(=O)CN(C)C(=O)[C@H](CC2CCCCC2)N(C)C(=O)CN(C)C(=O)CN(C)C1=O [Compound 248] (cyclo([Ac5c][NMeV][d(β3hA)][NMeAla(cPr)]I[Sar][Sar][NMeCha][Sar][hPhe(3-Cl-4-CF3)]P)) | 31 nM
4 | CC[C@H](C)[C@@H]1NC(=O)[C@H](CC(C)C)N(C)C(=O)C[C@@H](C(=O)N2CCCCC2)N(C)C(=O)[C@H](C(C)C)N(C)C(=O)C2(CCC2)NC(=O)[C@H](CC(=O)N2CCC(F)(F)CC2)N(C)C(=O)[C@H](CCc2ccc(C(F)(F)F)c(Cl)c2)NC(=O)CN(C)C(=O)[C@H](CC2CCCCC2)N(C)C(=O)CN(C)C(=O)CN(C)C1=O [Compound 251] ([NMeL]I[Sar][Sar][NMeCha][Sar][hPhe(3-Cl-4-CF3)][NMeD](N(CH2CH2)2CF2)[Ac4c][NMeV][NMeD]-Piperidide; lactam N-11) | 3.8 nM
5 | CC[C@H](C)[C@@H]1NC(=O)[C@H](C)N(C)C(=O)C[C@@H](C(=O)N2CCCCC2)NC(=O)[C@H](CC(C)C)N(C)C(=O)[C@H](Cc2ccccc2)N(C)C(=O)[C@H](CC(C)C)NC(=O)[C@H](Cc2cccc(C#N)c2)NC(=O)CN(C)C(=O)[C@H](Cc2ccc(Cl)cc2)N(C)C(=O)CN(C)C(=O)CN(C)C1=O [Compound 252] ([NMeA]I[Sar][Sar][NMePhe(4-Cl)][Sar][Phe(3-CN)]L[NMeF][NMeL]D-Piperidide; lactam N-11) | 55 nM
6 | CC[C@H](C)[C@@H]1NC(=O)[C@H](CC(C)C)N(C)C(=O)C[C@@H](C)NC(=O)[C@H](CC(C)C)N(C)C(=O)C2(CCCC2)NC(=O)[C@@H]2CCCN2C(=O)[C@H](CCc2ccc(C(F)(F)F)cc2)NC(=O)CN(C)C(=O)[C@H](Cc2ccc(Cl)cc2)N(C)C(=O)CN(C)C(=O)CN(C)C1=O [Compound 258] (cyclo([Ac5c][NMeL][d(β3hA)][NMeL]I[Sar][Sar][NMePhe(4-Cl)][Sar][hPhe(4-CF3)]P)) | 36 nM
7 | CCCC[C@@H]1NC(=O)[C@H](Cc2cccc(I)c2)NC(=O)CN(C)C(=O)[C@H](Cc2ccc(Cl)cc2)N(C)C(=O)CN(C)C(=O)CN(C)C(=O)[C@H]([C@@H](C)CC)NC(=O)[C@H](CC(C)C)N(C)C(=O)C[C@@H](C(=O)N2CCCCC2)N(C)C(=O)[C@H](CC(C)C)NC(=O)[C@H](Cc2ccccc2OC)N(C)C1=O [Compound 259] ([NMeL]I[Sar][Sar][NMePhe(4-Cl)][Sar][Phe(3-I)][Nle][NMePhe(2-OMe)]L[NMeD]-Piperidide; lactam N-11) | 21 nM
8 | CC[C@H](C)[C@@H]1NC(=O)[C@H](CC(C)C)N(C)C(=O)C[C@@H](C(=O)N2CCCCC2)N(C)C(=O)[C@H](C(C)C)N(C)C(=O)C2(CCCC2)NC(=O)[C@@H]2CCCN2C(=O)[C@H](CCc2ccccc2)NC(=O)CN(C)C(=O)[C@H](CC2CCCCC2)N(C)C(=O)CN(C)C(=O)CN(C)C1=O [Compound 265] ([NMeL]I[Sar][Sar][NMeCha][Sar][hPhe]P[Ac5c][NMeV][NMeD]-Piperidide; lactam N-11) | 280 nM
9 | CC[C@H](C)[C@@H]1NC(=O)[C@H](C)N(C)C(=O)C[C@@H](C(=O)N2CCCCC2)N(C)C(=O)[C@H](C(C)C)N(C)C(=O)C2(CCCC2)NC(=O)[C@@H]2CCCN2C(=O)[C@H](CCc2ccc(C(F)(F)F)c(F)c2)NC(=O)CN(C)C(=O)[C@H](CC2CCCCC2)N(C)C(=O)CN(C)C(=O)CN(C)C1=O [Compound 266] ([NMeA]I[Sar][Sar][NMeCha][Sar][hPhe(3-F,4-CF3)]P[Ac5c][NMeV][NMeD]-Piperidide; lactam N-11) | 4.6 nM
10 | CC[C@H](C)[C@@H]1NC(=O)[C@H](C)N(C)C(=O)C[C@@H](C)NC(=O)[C@H](C(C)C)N(C)C(=O)C2(CCCC2)NC(=O)[C@@H]2CCCN2C(=O)[C@H](CCc2ccc(C(F)(F)F)c(Cl)c2)NC(=O)[C@H]2CCCCN2C(=O)[C@H](CC2CCCCC2)N(C)C(=O)[C@@H]2CCN2C(=O)CN(C)C1=O [Compound 267] (cyclo([Ac5c][NMeV][d(β3hA)][NMeA]I[Sar][Aze][NMeCha][dPip][hPhe(3-Cl-4-CF3)]P)) | 130 nM
11 | CC[C@H](C)[C@@H]1NC(=O)[C@H](CC(C)C)N(C)C(=O)C[C@@H](C)N(C)C(=O)[C@H](C(C)C)N(C)C(=O)C2(CC2)NC(=O)[C@@H]2CCCN2C(=O)[C@H](CCc2ccc(C(F)(F)F)c(Cl)c2)NC(=O)CN(C)C(=O)[C@H](CC2CCCCC2)N(C)C(=O)CN(C)C(=O)CN(C)C1=O [Compound 268] (cyclo([Ac3c][NMeV][NMedβ3hAla][NMeL]I[Sar][Sar][NMeCha][Sar][hPhe(3-Cl-4-CF3)]P)) | 18 nM
12 | CC[C@H](C)[C@@H]1NC(=O)[C@H](CC(C)C)N(C)C(=O)C[C@@H](C)N(C)C(=O)[C@H](C2CCCC2)N(C)C(=O)C2(CCCC2)NC(=O)[C@@H]2CC(F)(F)CN2C(=O)[C@H](CCc2cc(F)c(C(F)(F)F)c(F)c2)NC(=O)CN(C)C(=O)[C@H](Cc2ccc(C(F)(F)F)cc2)N(C)C(=O)CN(C)C(=O)CN(C)C1=O [Compound 269] (cyclo([Ac5c][NMeGly(cPent)][NMedβ3hAla][NMeL]I[Sar][Sar][NMePhe(4-CF3)][Sar][hPhe(3,5-F2-4-CF3)][Pro(4,4-F2)])) | 3.4 nM
13 | CC[C@H](C)[C@@H]1NC(=O)[C@H](CC(C)C)N(C)C(=O)C[C@@H](C)NC(=O)[C@H](C(C)C)N(C)C(=O)[C@@](C)(CC)NC(=O)[C@@H]2CCCN2C(=O)[C@H](CCc2ccc(C(F)(F)F)c(Cl)c2)NC(=O)CN(C)C(=O)[C@H](CC2CCCCC2)N(C)C(=O)CN(C)C(=O)CN(C)C1=O [Compound 275] (cyclo(I[Sar][Sar][NMeCha][Sar][hPhe(3-Cl-4-CF3)]P[dIva][NMeV][d(β3hA)][NMeL])) | 46 nM
